Reference: patent US20150306110A1, “COMPOSITIONS AND METHODS FOR TREATMENT OF INFLAMMATION AND HYPERKERATOTIC LESIONS” (Novelix Pharmaceuticals, Inc., priority 2008, published 2015)

Legend:
[1] = tested on: RD-ES (Ewing's sarcoma); assay: Cell growth/survival, RD-ES Ewing's sarcoma cells; format: cell-based; conditions: Homo sapiens, TP53 mut.
Protocol: (§1) Melanoma cell lines used in this study were maintained in Dulbecco's modified Eagle medium (DMEM with 4500 mg/l glucose) supplemented with 10% FCS from Gibco BRL (Life Technologies, Berlin, Germany). The canine mastocytoma cell line C2 (DeVinney et al, Am. J. Respir. Cell Mol. Biol. 3:413-20, 1990) was used in this study, along with additional human cell lines: RD-ES and TC-71 (human Ewing's sarcoma), SAOS2 (human osteosarcoma), HT-1080 (human fibrosarcoma), Caco-2 (human colon adenocarcinoma), A549 (human lung adenocarcinoma), Hep-G2 and Hep-3B (human hepatocellular carcinoma), SK-N-DZ and SK-N-FI (human embryonal neuroblastoma), HTB9 (human bladder cancer), MDA-468 and MCF-7 (human breast cancer) and SW872 liposarcoma. All breast cancer cells were routinely cultured in DMEM/F-12 or in DMEM alone supplemented with 10% FCS at 37° C. in a humidified 5% CO2 atmosphere. RD-ES and TC-71 sarcoma cell lines were maintained in RPMI 1640 (Biochrom KG, Berlin, Germany) containing 10% FCS at 37° C. in a humidified 5% CO2 atmosphere. […]
(§2) Briefly, cells were maintained in standard medium, harvested, and plated at equal densities (750,000 cells in 5 cm tissue culture dishes). […] For the assessment of cell growth, the number of surviving cells was determined using an automated cell counter from Beckman Coulter GmbH (Krefeld, Germany). […]

[2] = tested on: Hep-G2; assay: Cell growth/survival, Hep-G2 hepatocellular carcinoma cells; format: cell-based; conditions: Homo sapiens, HepG2, TP53 neg.
Protocol: as §1, §2

[3] = tested on: canine lesion clinically diagnosed as basal cell carcinoma; assay: Topical treatment of canine basal cell carcinoma; format: in vivo, dog
Excerpt: A 1% topical solution of NVX-207 in 20% ethanol, 20% Tween® 80 was applied to an exophytically growing slightly bleeding (on contact) tumor on the nose of a dog using a NVX-207 soaked cotton swab every second to third day for 7 weeks.

[4] = tested on: Mastocytoma-C2; assay: Cell growth/survival, canine mastocytoma C2 cells; format: cell-based; conditions: Canis lupus familiaris
Protocol: as §1, §2

[5] = tested on: TC-71 (Ewing's sarcoma); assay: Cell growth/survival, TC-71 Ewing's sarcoma cells; format: cell-based; conditions: Homo sapiens, TP53 mut.
Protocol: as §1, §2

[6] = tested on: SK-N-FI; assay: Cell growth/survival, SK-N-FI neuronal cancer cells; format: cell-based; conditions: Homo sapiens, TP53 mut.
Protocol: as §1, §2

[7] = tested on: human umbilical vein endothelial cells (HUVEC); assay: Survival of HUVEC at 80% and 30% confluency; format: cell-based; conditions: 2.5 μM; for Mean survival, percentage of control-treated cells: HUVEC, n=3
Protocol: All cells were treated with 2.5 μM NVX-207. Percentage (means±S.E., n=3) of control-treated cells are given. […] Mean survival in NVX-207 treated fibroblasts at 80% confluency was 92% (S.E.=3.8) versus 3.8% mean survival (S.E.=0.4) at 30% confluency. […] HUVECs, keratinocytes and fibroblast cells were obtained from Lonza GmbH (Wuppertal, Germany) and cultivated according to the manufacturer's instructions.
Human umbilical vein endothelial cells (HUVEC), keratinocytes and fibroblast cells were obtained from Lonza GmbH (Wuppertal, Germany) and cultivated according to the manufacturer's instructions. […] The IC50 value of betulinic acid in human keratinocytes was recently determined to be ˜5.0 μg/ml (Tino Galgon al., Exp Dermatol. 14:736-43, 2005), while the IC50 of NVX-207 is ˜0.7 µg/ml. […] Mean survival in NVX-207 treated fibroblasts at 80% confluency was 92% (S.E.=3.8) versus 3.8% mean survival (S.E.=0.4) at 30% confluency. […] Under normal physiological conditions, the endothelium, as well as skin fibroblasts and skin keratinocytes, show relatively low turn-over and limited cell divisions to maintain tissue integrity.
Keratinocytes at high confluence (e.g., 80%) mimic normal physiological conditions in which these cells divide more slowly (fewer cell divisions per unit of time). In contrast, keratinocytes in psoriatic lesions divide more rapidly, as do keratinocytes cultured at lower confluency (e.g., 30%). Thus, the 30% confluency conditions were considered a model for psoriasis whereas the behavior of 80% confluent cells more closely reflects the conditions observed in normal skin.

[8] = tested on: HAT 1080 (fibrosarcoma); assay: Cell growth/survival, HAT 1080 fibrosarcoma cells; format: cell-based; conditions: Homo sapiens, TP53 mut.
Protocol: as §1, §2

[9] = tested on: hyperkeratotic palpable lesion with inflammatory components; assay: Topical treatment of human hyperkeratotic lesions with inflammatory components; format: in vivo; conditions: 1% topical solution
Protocol: A 1% topical solution of NVX-207 (20% ethanol, 20% Tween® 80 and 80% water) was applied to human skin to treat a treatment resistant hyperkeratotic palpable lesion with inflammatory components. The NVX-207 was administered once a day on days 1, 2, 3, 10, 11, 12 and 13. Significant improvement (better than 80% reduction) was observed after one day, and additional improvement was observed after a total of six additional treatments applied within 14 days. […] A second identical lesion was treated with the same formulation twice a day for 2 days, and disappeared.

[10] = tested on: Soft tissue sarcoma; assay: Intra-tumoral NVX-207 in canine patient, soft tissue sarcoma; conditions: Patient #1, 11, F; 48 treatment cycles

C=C(C)[C@@H]1CC[C@]2(C(=O)OCC(N)(CO)CO)CC[C@]3(C)[C@H](CC[C@@H]4[C@@]5(C)CC[C@H](OC(C)=O)C(C)(C)[C@@H]5CC[C@]43C)[C@@H]12 [NVX-207, 3-O-acetylbetulinic acid-2-amino-3-hydroxy-2-hydroxymethylpropyl ester]
IC50 [1]: 5.3 µM
IC50 [2]: 3.3 µM
Reduction of tumor ([3]; 1% topical solution in 20% ethanol, 20% Tween 80 every second to third day, after 3 weeks): about 90%
Inflammation during treatment ([3]; topical): absence of inflammation
IC50 [4]: 3 µM
IC50 [5]: 5.5 µM
IC50 [6]: 3.7 µM
Mean survival, percentage of control-treated cells ([7]; 30% confluency): 18.3%
Mean survival, percentage of control-treated cells ([7]; 80% confluency): 90.3%
More effective at 30% confluency compared to 80% confluency ([7]; endothelial cells): ~5 fold
IC50 [8]: 5.6 µM
Deleterious (toxic) effects on the treated areas (inflammation, redness, swelling) [9]: No deleterious (toxic) effects
Improvement (reduction) of lesion ([9]; after one day): > 80%
Side effects ([9]; first lesion): No reddening, inflammation or any other side effects were observed
Overall Survival [10]: 15 months
